Measurements: article PMC12326976 (Antimicrobial Agents and Chemotherapy, 2025)
Peptide text beside a SMILES is read from it.

Key:
H1N1 virus [1] = experiment: Plaque reduction assay, H1N1 in MDCK cells; format: cell-based, influenza A/Hong Kong/415742/2009 (H1N1); details: H30 in 20% PBS compared to PBS, plaque assay, Fig. S1
Protocol: The antiviral activity of peptides was measured by plaque reduction assay. Briefly, peptides were dissolved in PBS or 20% PBS. Peptides (0.2-25.0 µg mL^−1) were premixed with H1N1 virus at room temperature. After 30 min of incubation, the peptide-virus mixture was transferred to MDCK cells for infection at 37°C. At 1 hpi, infectious media were removed, and then 1% low melting agar was added to cells. Cells were fixed using 4% formalin at 2–3 dpi. […] (0.1%) was added to cells for cell staining to count viral plaques.

rhinovirus A1 = format: cell-based
H1N1 virus [2] = format: cell-based, influenza H1N1 virus

With `CC[C@H](C)[C@H](NC(=O)[C@H](C)NC(=O)CN)C(=O)N[C@@H](CS)C(=O)N[C@@H](Cc1c[nH]cn1)C(=O)N1CCC[C@H]1C(=O)N[C@H](C(=O)N[C@@H](Cc1ccccc1)C(=O)N[C@@H](CS)C(=O)N1CCC[C@H]1C(=O)N[C@@H](CCCNC(=N)N)C(=O)N[C@@H](CCCNC(=N)N)C(=O)N[C@@H](Cc1ccc(O)cc1)C(=O)N[C@@H](CCCCN)C(=O)N[C@@H](CCC(N)=O)C(=O)N[C@H](C(=O)NCC(=O)N[C@H](C(=O)N[C@@H](CS)C(=O)NCC(=O)N[C@@H](CC(C)C)C(=O)N1CCC[C@H]1C(=O)NCC(=O)N[C@H](C(=O)N[C@@H](CCCCN)C(=O)N[C@@H](CS)C(=O)N[C@@H](CS)C(=O)N[C@@H](CCCCN)C(=O)N[C@@H](CCCCN)C(=O)N1CCC[C@H]1C(=O)O)[C@@H](C)O)[C@@H](C)O)[C@@H](C)CC)C(C)C` [H30] (H-GAICHPVFCPRRYKQIGTCGLPGTKCCKKP-OH; N-terminus and C-terminus assumed) the “antiviral activity against H1N1 in low salt” value (H1N1 virus [1]) was “could show antiviral activity in the low salt condition of 20% phosphate-buffered saline” and the “antiviral activity against rhinovirus A1 in low salt” value (rhinovirus A1) was “could show more effective antiviral activity in low salt conditions”.
`CC(=O)N[C@H]1[C@H]([C@H](O)[C@H](O)CO)OC(C(=O)O)=C[C@@H]1N=C(N)N` [zanamivir, reference compound] was tested, and the “H1N1 viral release, supernatant virus at 8 hpi” value (H1N1 virus [2]) was “significantly inhibited H1N1 viral release from cells”.
